{"source": "patent US20030207014A1", "about": "“Animal feed and additive for animal feed to control feed borne pathogens” (priority 2002, published 2003)", "key": {"[1]": {"test_system": "microbes present in animal feeds", "assay": "laboratory tests of anti-microbial action in animal feed", "source_text": "These properties make sodium percarbonate an ideal feed additive for animal feeds. In the preferred embodiments of the present invention sodium percarbonate is included in the feed formulations prior to the pellet forming process common to most animal feed processing procedures. […] This is due to the broad disinfection action of the sodium percarbonate upon all bacteria and the spores of bacteria, fungi, and algae.\nSuch mammalian animal proteins have been banned throughout Europe although they continue to be used in other parts of the world. Otherwise the animal feeds in accordance with present invention are substantially the same as conventional animal feeds with the addition of sodium percarbonate."}, "[2]": {"assay": "feeding of treated feed to livestock / poultry", "format": "in vivo", "source_text": "The preferred proportion of sodium percarbonate will vary for the specific animal feed composition and the specific animal consuming the feed as well as various environmental factors."}, "[3]": {"assay": "stability under pressure steam sterilization", "format": "physicochemical"}}}
{"molecule": "O=C([O-])[O-].O=C([O-])[O-].OO.OO.OO.[Na+].[Na+].[Na+].[Na+]", "note": "[sodium percarbonate]", "values": [{"measurement": "effectiveness depending on feed composition", "setting": "[1]; animal feeds that do not include mammalian animal proteins", "value": "greatest"}, {"measurement": "anti-microbial effectiveness", "setting": "[1]; laboratory tests, all bacteria and spores of bacteria, fungi, algae", "value": "effective against all microbes present in animal feeds"}, {"measurement": "acceptance of treated feed", "setting": "[2]; livestock", "value": "readily accepted"}, {"measurement": "digestive reactions", "setting": "[2]; poultry, rates of 2-8% by weight in feed", "value": "no untold digestive reactions"}, {"measurement": "stability", "setting": "[3]", "value": "very stable"}]}
